In paper PMC12372887, “Mechanism and cellular actions of the potent AMPK inhibitor BAY-3827” (Science Advances, 2025):

Tested on: mouse primary adipocytes
Test: Immunoblot of signaling in primary adipocytes
Format: cell-based
Description: Epidydimal adipose tissue excised from mice was digested with collagenase (1 mg/ml) in Krebs-Ringer medium (120 mM NaCl, 4.7 mM KCl, 1.2 mM KH2PO4, and 1.2 mM MgSO4) containing 25 mM Hepes (pH 7.4), 200 nM adenosine, 2 mM glucose, and 3% (w/v) bovine serum albumin (BSA) (KRH buffer) at 37°C in a shaking incubator. Adipocytes were isolated by filtering and washing in KRH buffer. For preparation of protein extracts for Western blot, adipocyte suspensions [0.7 to 1 ml of 10% (v/v) cells] were preincubated with BAY-3827 or BAY-974 compounds or 0.1% DMSO for 1 hour at 37°C in a shaking (80 rpm) water bath followed by either 1 hour of incubation with 10 μM MK-8722 or 30 min with 0.1 nM insulin (Novo Nordisk) in KRH buffer, as indicated in the figure legends. […] Lysates were centrifuged at 13,000g for 15 min (4°C), and supernatant protein concentration was determined by the Bradford assay. […]
For adipocyte experiments, cell lysates (25 μg protein) were heated at 95°C for 3 min in LDS sample buffer, subjected to polyacrylamide gel electrophoresis on precast Novex gradient gels (Thermo Fisher Scientific) and electrotransferred to nitrocellulose membranes. […] Luminescence signals were visualized in a ChemiDoc XRS+ (Bio-Rad) and quantified by densitometry using the software Image LabTM 5.1 (Bio-Rad). […]

`CCc1ccccc1C(=O)Nc1n[nH]c2c(C)c(F)c(C3C(C#N)=C(C)N(C)C(C)=C3C#N)cc12` [BAY-3827, N-[5-(3,5-dicyano-1,2,6-trimethyl-4H-pyridin-4-yl)-6-fluoro-7-methyl-1H-indazol-3-yl]-2-ethylbenzamide] was tested, and the “basal and insulin-stimulated phosphorylation of Akt and TBC1D4” value (10 μM) was “not significantly affected” and the Raptor phosphorylation (varying doses, irrespective of MK-8722) was “dose-dependent reduction”.
